Calls of active or inactive are those of the source.
Tests used:
[1] = viability of uninfected HEp-2 cells – cell-based, HTS, cytotoxicity control for RSV inhibitor project, dose response (AID 2410); assay type: functional; conditions: human respiratory syncytial virus
Large T antigen = Large T antigen (Simian virus 40, UniProt P03070); assay type: functional, Betapolyomavirus macacae;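 also: Confirmatory-stage PubChem screen for compounds that inhibit SV40 T antigen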
[2] = biological target: FAD-linked sulfhydryl oxidase ALR (Homo sapiens, UniProt P55789); experiment: ALR-catalysed DTT oxidation blockers – biochemical, H2O2 detection, luminescence, cherry-pick, dose response (AID 493248)
FAD-linked sulfhydryl oxidase ALR, sequence (P55789 whole entry): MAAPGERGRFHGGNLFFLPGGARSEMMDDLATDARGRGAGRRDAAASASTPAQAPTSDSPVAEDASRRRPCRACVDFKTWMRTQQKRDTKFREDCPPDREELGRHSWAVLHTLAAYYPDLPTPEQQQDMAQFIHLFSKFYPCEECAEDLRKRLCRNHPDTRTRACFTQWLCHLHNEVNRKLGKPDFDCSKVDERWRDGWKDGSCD

H4 = experiment: Luminescence Cell-Based Dose Response HTS to Identify Activators of 5'UTR Stem-Loop Driven Prion Protein mRNA Translation in H4 Neuroglioblastoma Cells. [Related pubchem assays: 1829 (Project Summary), 1814 (Primary HTS)]; assay type: functional; conditions: Homo sapiens
[3] = Luminescence Cell-Based Dose Confirmation HTS to Identify Activators of 5'UTR Stem-Loop Driven Alpha-Synuclein mRNA Translation in H4 Neuroglioblastoma Cells. [Related pubchem assays: 1829 (Project Summary), 1814 (Primary HTS)]; assay type: functional
[4] = Luminescence Cell-Based Dose Response HTS to Identify Activators of Luciferase Translation or Activity in H4 […] Cells. [Related pubchem assays: 1829 (Project Summary), 1814 (Primary HTS)]; assay type: functional
BJ [5] = experiment: cells; assay type: functional, cell-based; conditions: Homo sapiens
BJ [6] = experiment: BJ-TERT fibroblast viability loss – cell-based, RAS-independent, luminescence, dose response (AID 1933); assay type: functional; conditions: Homo sapiens
BJ [7] = experiment: BJ-TERT-LT-ST fibroblast viability loss – cell-based, RAS-independent, luminescence, dose response (AID 1935); assay type: functional; conditions: Homo sapiens;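 also: BJ fibroblasts immortalized with TERT plus LT and ST oncogenes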
[8] = DRD fibroblast viability loss – cell-based, non-viral oncogenic, luminescence, dose response (AID 1934); assay type: functional; conditions: Homo sapiens
[9] = Luminescence Cell-Based Dose Response HTS to Identify Inhibitors of 5'UTR Stem-Loop Driven Prion Protein mRNA Translation in H4 Neuroglioblastoma Cells. [Related pubchem assays: 1827 (Project Summary), 1813 (Primary HTS)]; assay type: functional
[10] = luciferase reporter signal suppression in cells – H4 neuroglioma cells, luminescence, dose response (AID 1990); assay type: functional, cell-based
Streptococcus = experiment: GAS UMAA2166 growth inhibition – luminescence, BacTiterGlo, counter-screen for streptokinase expression inhibitor project, dose response (AID 1915); assay type: functional, organism-based;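 also: potency for reduction of bacterial viability or growth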
Streptokinase A = biological target: T1, Streptokinase A (Streptococcus pyogenes serotype M1, UniProt P10520); experiment: viability-normalized secreted streptokinase activity reduction – plasminogen activation absorbance, OD405, dose response (AID 1914); assay type: functional, Streptococcus pyogenes M1 GAS;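 also: secreted streptokinase activity via plasminogen activation per viability signal from cell pellet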
T1 sequence (P10520 whole entry): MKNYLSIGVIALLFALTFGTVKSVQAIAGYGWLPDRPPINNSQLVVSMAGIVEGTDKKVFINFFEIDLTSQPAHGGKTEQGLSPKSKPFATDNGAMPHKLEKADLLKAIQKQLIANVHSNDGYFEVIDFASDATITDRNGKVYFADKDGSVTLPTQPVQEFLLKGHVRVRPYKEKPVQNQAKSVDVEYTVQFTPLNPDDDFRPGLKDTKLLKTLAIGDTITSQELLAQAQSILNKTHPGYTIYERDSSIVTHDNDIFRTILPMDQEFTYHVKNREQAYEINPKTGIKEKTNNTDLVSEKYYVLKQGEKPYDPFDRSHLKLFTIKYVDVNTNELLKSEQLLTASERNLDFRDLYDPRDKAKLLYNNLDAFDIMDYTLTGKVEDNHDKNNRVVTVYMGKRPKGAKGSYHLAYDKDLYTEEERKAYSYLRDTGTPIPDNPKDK

[11] = alpha-synuclein stem-loop luciferase translation blockers – H4 neuroglioma cells, luminescence, confirmation (AID 1988); assay type: functional, cell-based
[12] = test system: Streptococcus sp. 'group A'; experiment: Streptococcus pyogenes SK(-)GAS viability under kanamycin – luminescence, BacTiterGlo, confirmation, counter-screen for streptokinase expression inhibitor project, dose response (AID 1900); assay type: functional, organism-based
Cytochrome P450 1A2 = biological target: T2, Cytochrome P450 1A2 (Homo sapiens, UniProt P05177);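 also: PubChem cytochrome P450 panel assay, CYP1A2 panel member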
T2 sequence (P05177 whole entry): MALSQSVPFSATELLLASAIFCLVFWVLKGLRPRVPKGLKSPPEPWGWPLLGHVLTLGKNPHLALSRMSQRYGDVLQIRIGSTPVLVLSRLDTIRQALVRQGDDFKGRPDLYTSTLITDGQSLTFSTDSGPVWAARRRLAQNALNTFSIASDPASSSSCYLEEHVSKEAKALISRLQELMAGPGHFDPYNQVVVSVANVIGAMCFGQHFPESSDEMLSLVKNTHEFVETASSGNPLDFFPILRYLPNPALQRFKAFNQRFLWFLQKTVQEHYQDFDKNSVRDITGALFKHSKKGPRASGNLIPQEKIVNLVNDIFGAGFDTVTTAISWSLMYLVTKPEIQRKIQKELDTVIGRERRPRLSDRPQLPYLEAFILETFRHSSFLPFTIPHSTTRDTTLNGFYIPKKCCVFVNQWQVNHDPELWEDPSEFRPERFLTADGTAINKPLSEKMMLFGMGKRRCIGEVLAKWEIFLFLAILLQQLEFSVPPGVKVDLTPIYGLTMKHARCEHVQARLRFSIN

[13] = biological target: T3, Rac GTPase-activating protein 1 (Homo sapiens, UniProt Q9H0H5); experiment: blockers of MgcRacGAP-driven Rac1 GTP hydrolysis – biochemical, ADP Hunter fluorescence, primary and confirmatory, confirmation (AID 624330); assay type: functional
T3 sequence (Q9H0H5 whole entry): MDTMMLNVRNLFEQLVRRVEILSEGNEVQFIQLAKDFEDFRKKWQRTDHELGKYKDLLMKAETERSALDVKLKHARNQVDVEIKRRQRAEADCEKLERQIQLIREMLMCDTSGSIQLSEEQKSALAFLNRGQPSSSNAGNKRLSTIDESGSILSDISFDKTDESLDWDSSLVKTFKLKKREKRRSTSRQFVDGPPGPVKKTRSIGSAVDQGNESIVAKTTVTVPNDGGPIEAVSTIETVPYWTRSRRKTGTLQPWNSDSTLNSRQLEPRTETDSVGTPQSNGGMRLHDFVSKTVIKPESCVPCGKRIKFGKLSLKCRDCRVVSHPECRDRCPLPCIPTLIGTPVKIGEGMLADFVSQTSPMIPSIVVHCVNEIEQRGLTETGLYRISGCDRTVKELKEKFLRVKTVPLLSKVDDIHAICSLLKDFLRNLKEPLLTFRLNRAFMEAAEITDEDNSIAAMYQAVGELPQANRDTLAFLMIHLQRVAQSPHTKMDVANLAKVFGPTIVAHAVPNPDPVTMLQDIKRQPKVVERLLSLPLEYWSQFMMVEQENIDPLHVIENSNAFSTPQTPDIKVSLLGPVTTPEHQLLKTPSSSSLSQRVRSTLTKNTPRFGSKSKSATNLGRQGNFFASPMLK

[14] = NIH3T3 cell viability loss – ATP luminescence, mouse fibroblasts, counter-screen, dose response (AID 2010); assay type: functional, cell-based;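 also: cells exposed to compound for about 90 hours before reading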
[15] = Trypanosoma cruzi growth suppression in host cells – NIH3T3 host cells, beta-gal luminescence, confirmation (AID 2044); assay type: functional, cell-based;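 also: intracellular parasites grown in NIH/3T3 mouse fibroblasts as host cells; luminescent beta-galactosidase reporter signal from transgenic T. cruzi replicating inside host cells; inhibitors lower the luminescence signal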
[16] = biological target: T4, Heat shock factor protein 1 (Mus musculus, UniProt P38532); experiment: decrease of HSF1-responsive luciferase luminescence – cell-based, NIH3T3, dose retest, confirmation (AID 2382); assay type: functional;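 also: NIH3T3 fibroblasts with HSF1-driven luciferase reporter stressed by proteasome inhibitor MG132; luminescence from HSF1-driven luciferase expression after 8 hours of MG132 stress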
T4 sequence (P38532 whole entry): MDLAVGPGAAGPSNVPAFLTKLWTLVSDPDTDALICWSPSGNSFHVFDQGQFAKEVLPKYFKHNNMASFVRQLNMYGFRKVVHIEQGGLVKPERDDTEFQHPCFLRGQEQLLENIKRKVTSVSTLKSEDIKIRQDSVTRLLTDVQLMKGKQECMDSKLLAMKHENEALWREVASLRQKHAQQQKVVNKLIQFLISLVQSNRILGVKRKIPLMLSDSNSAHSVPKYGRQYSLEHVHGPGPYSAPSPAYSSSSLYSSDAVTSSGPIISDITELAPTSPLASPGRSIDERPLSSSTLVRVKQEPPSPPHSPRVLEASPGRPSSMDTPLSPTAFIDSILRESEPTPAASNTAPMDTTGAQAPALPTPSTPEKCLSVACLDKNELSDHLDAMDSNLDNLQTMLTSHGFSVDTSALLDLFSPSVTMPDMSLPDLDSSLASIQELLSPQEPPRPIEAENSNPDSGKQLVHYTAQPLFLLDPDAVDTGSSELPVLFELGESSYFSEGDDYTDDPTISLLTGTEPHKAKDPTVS

Cytochrome P450 2C19 = Cytochrome P450 2C19 (Homo sapiens, UniProt P33261); experiment: Cytochrome panel assay with activity outcomes. Panel member name: p450-cyp2c19 Compounds with AC50 equal or less than 10 uM are considered active; assay type: functional; conditions: read-out: AC50
Cytochrome P450 2C19, sequence (P33261 whole entry): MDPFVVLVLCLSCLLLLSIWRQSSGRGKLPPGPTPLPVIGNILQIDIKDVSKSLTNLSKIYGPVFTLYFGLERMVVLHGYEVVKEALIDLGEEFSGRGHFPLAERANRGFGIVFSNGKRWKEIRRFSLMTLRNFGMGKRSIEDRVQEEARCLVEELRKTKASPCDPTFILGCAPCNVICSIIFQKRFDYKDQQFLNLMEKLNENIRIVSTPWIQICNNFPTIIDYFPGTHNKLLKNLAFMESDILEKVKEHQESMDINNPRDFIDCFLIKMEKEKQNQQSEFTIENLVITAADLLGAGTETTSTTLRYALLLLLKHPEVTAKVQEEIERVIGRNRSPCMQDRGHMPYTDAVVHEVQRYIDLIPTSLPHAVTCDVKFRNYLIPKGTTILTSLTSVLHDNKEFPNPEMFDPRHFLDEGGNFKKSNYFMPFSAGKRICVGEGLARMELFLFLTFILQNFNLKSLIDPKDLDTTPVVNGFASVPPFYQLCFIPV

Cytochrome P450 2D6 = Cytochrome P450 2D6 (Homo sapiens, UniProt P10635);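 also: CYP2D6 member of a cytochrome P450 panel assay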
Cytochrome P450 2D6, sequence (P10635 whole entry): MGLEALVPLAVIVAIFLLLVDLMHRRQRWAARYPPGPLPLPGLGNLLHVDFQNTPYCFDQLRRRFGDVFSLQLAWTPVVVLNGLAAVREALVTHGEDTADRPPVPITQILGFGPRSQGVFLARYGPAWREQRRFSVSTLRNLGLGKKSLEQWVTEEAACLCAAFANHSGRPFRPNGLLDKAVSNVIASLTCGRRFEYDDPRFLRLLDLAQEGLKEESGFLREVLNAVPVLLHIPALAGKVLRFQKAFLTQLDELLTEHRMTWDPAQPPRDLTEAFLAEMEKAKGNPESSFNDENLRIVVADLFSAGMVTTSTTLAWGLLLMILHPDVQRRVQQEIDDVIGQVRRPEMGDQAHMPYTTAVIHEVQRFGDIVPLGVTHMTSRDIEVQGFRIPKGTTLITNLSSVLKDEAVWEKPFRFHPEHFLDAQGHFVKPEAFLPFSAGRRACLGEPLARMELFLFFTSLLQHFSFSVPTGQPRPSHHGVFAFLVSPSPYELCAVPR

Large T antigen, sequence (P03070 whole entry): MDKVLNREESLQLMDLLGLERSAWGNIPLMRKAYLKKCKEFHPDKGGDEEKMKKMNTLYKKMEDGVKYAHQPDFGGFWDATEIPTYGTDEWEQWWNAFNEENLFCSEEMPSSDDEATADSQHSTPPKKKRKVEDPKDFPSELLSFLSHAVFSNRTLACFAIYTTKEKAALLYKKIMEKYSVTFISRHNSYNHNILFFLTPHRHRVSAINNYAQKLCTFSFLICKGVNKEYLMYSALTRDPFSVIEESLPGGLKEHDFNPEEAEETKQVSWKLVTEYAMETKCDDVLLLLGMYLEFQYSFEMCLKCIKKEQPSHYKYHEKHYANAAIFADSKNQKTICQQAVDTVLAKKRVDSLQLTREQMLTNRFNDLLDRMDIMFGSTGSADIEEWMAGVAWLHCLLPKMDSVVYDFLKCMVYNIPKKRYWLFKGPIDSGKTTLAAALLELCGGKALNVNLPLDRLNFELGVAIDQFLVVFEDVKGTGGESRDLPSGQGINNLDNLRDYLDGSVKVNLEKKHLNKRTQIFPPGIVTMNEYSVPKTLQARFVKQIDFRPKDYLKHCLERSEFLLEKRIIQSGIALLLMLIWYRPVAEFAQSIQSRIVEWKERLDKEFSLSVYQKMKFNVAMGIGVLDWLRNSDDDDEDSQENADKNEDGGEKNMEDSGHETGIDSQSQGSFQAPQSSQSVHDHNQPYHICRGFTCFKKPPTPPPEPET

COc1ccc(Nc2cc(C)c3ccc(O)cc3n2)cc1
CC50 [1]: 11.7 µM (active)

Cc1cc(C)n(CCc2nc(-c3ccco3)cs2)n1
IC50 (Large T antigen): 65.6 µM (active) | AC50 [2]: 4.56 µM (active)

O=Cc1c(N2CCN(c3ccccc3)CC2)nc2ccccn2c1=O
EC50 (H4): > 120 µM (not active) | EC50 [3]: > 120 µM (not active) | EC50 [4]: 17.8 µM (active) | AC50 [2]: 3.72 µM (active)

CCOC(=O)c1sc(NC(=O)c2ccccc2OC)nc1C
EC50 (BJ [5]): 22.8 µM (active) | EC50 (BJ [6]): 22.3 µM (active) | EC50 (BJ [7]): > 150 µM (inconclusive) | EC50 [8]: 14.7 µM (active)

Cc1ccccc1OCC(=O)NC(=S)Nc1ccc(Br)c(C)n1
EC50 [9]: 21 µM (active) | EC50 [10]: 25.1 µM (active) | EC50 (Streptococcus): > 150 µM (not active) | EC50 (Streptokinase A): 57.1 µM (active) | EC50 [11]: 14.2 µM (active) | EC50 [12]: > 150 µM (not active) | AC50 (Cytochrome P450 1A2): 3.16 µM (inconclusive)

COCCCn1c2nc3ccccc3nc2c2c(=O)n(Cc3ccc(Cl)cc3)cnc21
CC50 [1]: > 50 µM (active)

OCC1CCCN(C(=S)Nc2ccc(Nc3ccccc3)cc2)C1 (stereo unspecified)
IC50 (Large T antigen): 8.16 µM (active) | IC50 [13]: 41.8 µM (active)

COc1cccc(CNc2ncc(C(=O)Nc3cc(OC)c(OC)c(OC)c3)c(C)n2)c1
EC50 (BJ [5]): 46.7 µM (active) | EC50 (BJ [6]): > 150 µM (not active) | EC50 (BJ [7]): 17.9 µM (inconclusive) | EC50 [8]: 19.6 µM (inconclusive)

S=C(Sc1ccc(Cl)cc1)Sc1ccc(Cl)cc1
EC50 (BJ [5]): > 150 µM (inconclusive) | EC50 (BJ [6]): 3.4 µM (inconclusive) | EC50 (BJ [7]): 13.1 µM (inconclusive) | EC50 [8]: 9.25 µM (active)

COc1ccc(NCc2ccc(OC)c(Cn3ccnc3)c2)c(OC)c1
EC50 [14]: > 60 µM (not active) | EC50 [15]: 0.588 µM (active) | AC50 [2]: 1.76 µM (active)

COc1ccc(CCNC(=O)CN2CCN(Cc3ccccc3F)C2=O)cc1OC
EC50 [16]: > 195 µM (not active)

Cc1ccc(CN2CC(C(=O)Nc3ccc(C)cn3)CC2=O)cc1 (stereo unspecified)
EC50 [16]: > 195 µM (not active)

CNc1nnc(-c2cccc(N(C)C)c2)s1
AC50 [2]: 0.046 µM (active)

Cc1cc(C(=O)CSc2ccccc2)cc(C)c1O
CC50 [1]: 49.6 µM (active)

O=C(O)Cc1cc(I)c(Oc2ccc(O)c(I)c2)c(I)c1 [TIRATRICOL]
CC50 [1]: 13 µM (active) | AC50 (Cytochrome P450 1A2): 12.6 µM (inconclusive)

Cc1nnsc1-c1c(C(=O)Oc2ccccc2)c(C)nn1-c1ccccc1
EC50 [9]: > 120 µM (not active) | EC50 [10]: 18.8 µM (active) | EC50 [11]: 19.8 µM (active)

COc1ccc(-c2cc3ccc(OCc4nn[nH]n4)cc3oc2=O)cc1
EC50 [9]: 14.6 µM (active) | EC50 [10]: 13.9 µM (active) | EC50 [11]: 13.3 µM (active)

Cc1cc2nc(SCCOC(=O)Nc3cccc(Cl)c3)nc(C)c2cc1C
CC50 [1]: 32.2 µM (active)

O=C(O)c1ccccc1C(=O)Nc1ccc(Nc2ccc([N+](=O)[O-])cc2[N+](=O)[O-])cc1
AC50 [2]: 3.88 µM (active)

CN(C)c1ccc(-c2nnc(S)n2-c2ccccc2)cc1
AC50 [2]: 64.6 µM (active)

Cc1ccc(-c2nnc(SCC(=O)N/N=C/c3c(C)nn(-c4ccccc4)c3C)n2-c2ccccc2)cc1
CC50 [1]: 17.2 µM (active)

COc1ccc(/C=N/NC(=O)c2cc(-c3cccn3C)[nH]n2)cc1OC
EC50 [16]: > 195 µM (not active)

CC(=O)N1c2ccc(S(=O)(=O)N3c4ccccc4CC3C)cc2CC1C (stereo unspecified)
CC50 [1]: 15.1 µM (active)

COc1ccc(NC(S)=Nc2ccc(Oc3ccccc3)cc2)cc1
EC50 [16]: > 195 µM (not active)

Cc1ccc(-c2nnc(SCC(=O)N/N=C/c3c(C)nn(-c4ccccc4)c3C)n2-c2ccc(C)cc2)cc1
CC50 [1]: 20.5 µM (active)

Cc1cc(C(=O)N2CCCC(Nc3ccccc3)C2)c2ccc(F)cc2n1 (stereo unspecified)
AC50 [2]: 2.24 µM (active)

COc1cc(SC)ccc1C(=O)N1CCN(c2ccc(O)cc2)CC1
IC50 (Large T antigen): 5.95 µM (active) | AC50 [2]: 0.68 µM (active)

O=C(NN=C1CCCCCCCCCCC1)c1ccccc1F
EC50 [16]: > 195 µM (not active)

Cc1cc(NC(=O)c2cccnc2)ccc1NC(=O)c1cc2ccccc2o1
EC50 [9]: 17.7 µM (active) | EC50 [10]: 18.6 µM (active) | EC50 [11]: 20.6 µM (active)

CN(C)c1ccc(CNS(=O)(=O)c2ccc3c(c2)NC(=O)CS3)cc1
AC50 [2]: 7.37 µM (active)

NC1=NC(c2c[nH]nc2-c2cccc(F)c2)n2c(nc3ccccc32)N1 (stereo unspecified)
EC50 [16]: 27.5 µM (active)

Cn1cc(CCNC(=O)CC2C(=O)NCCN2Cc2cccc(Oc3ccccc3)c2)cn1 (stereo unspecified)
EC50 [16]: > 195 µM (not active)

COc1cc(/C=N\Nc2nc3ccccc3[nH]2)cc(OC)c1OC
AC50 (Cytochrome P450 2C19): 17.8 µM (inconclusive) | AC50 [2]: 0.997 µM (active) | AC50 (Cytochrome P450 2D6): 17.8 µM (inconclusive)

CC(C)C(=O)Nc1ccc2c(c1)nc1n2CCSC1
AC50 [2]: 0.245 µM (active)

From ChEMBL document CHEMBL1201862, “PubChem BioAssay data set” (2004)
